In paper PMC3740339 (Neurotoxicity research, 2009):

Target: tau (htau40), synthetic filaments (Homo sapiens, UniProt P10636)
Experiment: Thioflavin S fluorescence displacement from synthetic htau40 filaments
Format: binding

Sequence of tau (htau40), synthetic filaments (P10636 1-441 isoform P10636-8): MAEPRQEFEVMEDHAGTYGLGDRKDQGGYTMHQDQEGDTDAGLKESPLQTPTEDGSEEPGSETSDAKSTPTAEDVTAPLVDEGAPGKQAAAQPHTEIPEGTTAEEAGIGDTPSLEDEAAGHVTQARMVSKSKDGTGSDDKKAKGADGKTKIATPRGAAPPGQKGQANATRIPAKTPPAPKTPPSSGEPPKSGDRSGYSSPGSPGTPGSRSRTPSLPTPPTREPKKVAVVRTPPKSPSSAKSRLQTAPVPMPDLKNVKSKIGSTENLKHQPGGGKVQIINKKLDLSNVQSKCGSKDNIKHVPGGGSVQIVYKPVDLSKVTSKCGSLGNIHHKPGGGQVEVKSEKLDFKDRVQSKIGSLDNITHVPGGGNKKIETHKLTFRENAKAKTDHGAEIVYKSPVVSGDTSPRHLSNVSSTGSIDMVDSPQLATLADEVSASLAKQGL

AC50: 0.036 ± 0.006 µM
SMILES: COc1ccc2nc(/N=N/c3ccc(N(C)C)cc3)sc2c1 [N3, (E)-2-[[4-(dimethylamino)phenyl]azo]-6-methoxybenzothiazole]
